Legend:
[1] = tested on: transgenic Arabidopsis plants with wildtype or mutated cellulose synthase sequences (SEQ ID NO: 1 or 3); assay: 48-well plate growth inhibition of transgenic T2 Arabidopsis, relative tolerance rates versus non-transgenic (Table E2-1); assay type: in vivo, Arabidopsis thaliana; conditions: growth inhibition evaluated seven to ten days after seeding
Description: For transformation of Arabidopsis thaliana, wildtype or mutated cellulose synthase sequences encoding for one of the following protein sequences SEQ ID NO: 1 or 3, are cloned with standard cloning techniques as described in Sambrook et al. (Molecular cloning (2001) Cold Spring Harbor Laboratory Press) in a binary vector containing resistance marker gene cassette (AHAS) and mutated cellulose synthase sequence (marked as GOI) in between ubiquitin promoter (PcUbi) and nopaline synthase terminator (NOS) sequence. Binary plasmids are introduced to Agrobacterium tumefaciens for plant transformation. Arabidopsis thaliana are transformed with wildtype or mutated cellulose synthase sequences by floral dip method as described by McElver and Singh (WO 2008/124495). Transgenic Arabidopsis plants are subjected to TaqMan analysis for analysis of the number of integration loci.
Transgenic Arabidopsis thaliana plants (T2) are assayed for improved tolerance to azine herbicides like e. g. 6-cyclopentyl-N4-(2,3,4,5,6-pentafluorophenyl)-1,3,5-triazine-2,4-diamine in 48-well plates. Therefore, T2 seeds are surface sterilized by stirring for 5 min in ethanol+water (70+30 by volume), rinsing one time with ethanol+water (70+30 by volume) and two times with sterile, deionized water. The seeds are resuspended in 0.1% agar dissolved in water (w/v) Four to five seeds per well are plated on solid nutrient medium consisting of half-strength murashige skoog nutrient solution, pH 5.8 (Murashige and Skoog (1962) Physiologia Plantarum 15: 473-497). Compounds are dissolved in dimethylsulfoxid (DMSO) and added to the medium prior solidification (final DMSO concentration 0.1%). Multi well plates are incubated in a growth chamber at 22° C., 75% relative humidity and 110 μmol Phot*m^−2*s^−1 with 14:10 h light:dark photoperiod. Growth inhibition is evaluated seven to ten days after seeding in comparison to wild type plants. Tolerance factors are calculated based on IC50 values of growth inhibition of transformed versus non-transformed Arabidopsis plants.

[2] = tested on: At_CESA1_R292H (SEQ ID 1 - Variant R292H) M3 Arabidopsis plants; assay: Greenhouse pre-emergent treatment of M3 Arabidopsis seeds, phytotox (injury) rating, CESA1 R292H variant; assay type: in vivo, Arabidopsis thaliana; conditions: 21 days after treatment
Description: For selection of cellulose biosynthesis inhibitor resistant plants EMS mutagenized seed populations of Arabidopsis thaliana are used. EMS mutagenized seed populations are either bought from Lehle Seeds (1102 South Industrial Blvd. Suite D, Round Rock, Texas USA) or are generated as described elsewhere (Heim D R, et al. (1989) Plant Physiol. 90: 146-150). Causative mutations in CESA wildtype sequences (e.g. SEQ ID NO: 1 or 3) are identified as described by Scheible W R et al. (2001, Proc. Natl. Acad. of Sci. 98: 10079-10084), McCourt et. al. (WO2013/142968) or with the use of next generation sequencing methods as described by Austin R S, et al. (2011) Plant Journal 67: 715-725.
(§1) Additionally, M3 Arabidopsis seeds are tested for improved tolerance to CESA-inhibiting herbicides in greenhouse studies with azine compounds like e. g. N2-(4-chloro-3,5,6-trifluoro-2-pyridyl)-6-(1-fluorocyclopentyl)-1,3,5-triazine-2,4-diamine (Table E1-1, see also FIG. 3).

[3] = tested on: wildtype Arabidopsis thaliana; assay: Greenhouse pre-emergent treatment of M3 Arabidopsis seeds, phytotox (injury) rating, wildtype; assay type: in vivo; conditions: 21 days after treatment
Method: as §1

[4] = Construct AtCesA1_G1031R, SEQ ID 1, variant G1031R
[5] = Construct AtCesA1_R292H, SEQ ID 1, variant R292H
[6] = Construct AtCesA1_V297M, SEQ ID 1, variant V297M
[7] = Construct AtCesA1_wt, SEQ ID 1, no variant
[8] = Construct AtCesA3_wt, SEQ ID 3, no variant
[9] = Construct AtCesA1_L1011A, SEQ ID 1, variant L1011A
[10] = Construct AtCesA3_F1039L, SEQ ID 3, variant F1039L

SMILES: Cc1cccc(-n2nc(C(N)=O)nc2-c2ccccc2)c1
- Relative tolerance rate of transgenic Arabidopsis plants as compared to non-transgenic (non-transgenic = 1.0) [1, 4]: 13
- Relative tolerance rate of transgenic Arabidopsis plants as compared to non-transgenic (non-transgenic = 1.0) [1, 5]: 31
- Relative tolerance rate of transgenic Arabidopsis plants as compared to non-transgenic (non-transgenic = 1.0) [1, 6]: 5
- Relative tolerance rate of transgenic Arabidopsis plants as compared to non-transgenic (non-transgenic = 1.0) [1, 7]: 3
- Relative tolerance rate of transgenic Arabidopsis plants as compared to non-transgenic (non-transgenic = 1.0) [1, 8]: 4

SMILES: NC(=O)c1nc(-c2ccccc2)n(-c2ccc(Cl)c(COCC(F)(F)C(F)(F)F)c2)n1 [1-[4-chloro-3-(2,2,3,3,3-pentafluoropropoxymethyl)phenyl]-5-phenyl-1,2,4-triazole-3-carboxamide, reference compound]
- phytotox value ([2]; At_CESA1_R292H event A, 7.8 g ai/ha): 7.5
- phytotox value ([2]; At_CESA1_R292H event A, 31.25 g ai/ha): 80
- phytotox value ([2]; At_CESA1_R292H event A, 125 g ai/ha): 100
- phytotox value ([2]; At_CESA1_R292H event A, 250 g ai/ha): 100
- phytotox value ([2]; At_CESA1_R292H event B, 7.8 g ai/ha): 25
- phytotox value ([2]; At_CESA1_R292H event B, 31.25 g ai/ha): 52.5
- phytotox value ([2]; At_CESA1_R292H event B, 125 g ai/ha): 100
- phytotox value ([2]; At_CESA1_R292H event B, 250 g ai/ha): 100
- Relative tolerance rate of transgenic Arabidopsis plants as compared to non-transgenic (non-transgenic = 1.0) [1, 9]: 7
- Relative tolerance rate of transgenic Arabidopsis plants as compared to non-transgenic (non-transgenic = 1.0) [1, 10]: 3
- phytotox value ([3]; 7.8 g ai/ha): 12.5
- phytotox value ([3]; 31.25 g ai/ha): 99
- phytotox value ([3]; 125 g ai/ha): 100
- phytotox value ([3]; 250 g ai/ha): 100

SMILES: Nc1nc(Nc2nc(F)c(F)c(Cl)c2F)nc(C2(F)CCCC2)n1 [N2-(4-chloro-3,5,6-trifluoro-2-pyridyl)-6-(1-fluorocyclopentyl)-1,3,5-triazine-2,4-diamine]
- phytotox value ([2]; At_CESA1_R292H event A, 0.5 g ai/ha): 10
- phytotox value ([2]; At_CESA1_R292H event A, 1 g ai/ha): 10
- phytotox value ([2]; At_CESA1_R292H event A, 2 g ai/ha): 45
- phytotox value ([2]; At_CESA1_R292H event A, 4 g ai/ha): 94
- phytotox value ([2]; At_CESA1_R292H event B, 0.5 g ai/ha): 5
- phytotox value ([2]; At_CESA1_R292H event B, 1 g ai/ha): 0
- phytotox value ([2]; At_CESA1_R292H event B, 2 g ai/ha): 17.5
- phytotox value ([2]; At_CESA1_R292H event B, 4 g ai/ha): 87.5
- Relative tolerance rate of transgenic Arabidopsis plants as compared to non-transgenic (non-transgenic = 1.0) [1, 4]: 3
- Relative tolerance rate of transgenic Arabidopsis plants as compared to non-transgenic (non-transgenic = 1.0) [1, 9]: 1
- Relative tolerance rate of transgenic Arabidopsis plants as compared to non-transgenic (non-transgenic = 1.0) [1, 5]: 1
- Relative tolerance rate of transgenic Arabidopsis plants as compared to non-transgenic (non-transgenic = 1.0) [1, 6]: 1
- Relative tolerance rate of transgenic Arabidopsis plants as compared to non-transgenic (non-transgenic = 1.0) [1, 7]: 2
- Relative tolerance rate of transgenic Arabidopsis plants as compared to non-transgenic (non-transgenic = 1.0) [1, 10]: 1
- Relative tolerance rate of transgenic Arabidopsis plants as compared to non-transgenic (non-transgenic = 1.0) [1, 8]: 1
- phytotox value ([3]; 0.5 g ai/ha): 60
- phytotox value ([3]; 1 g ai/ha): 65
- phytotox value ([3]; 2 g ai/ha): 98
- phytotox value ([3]; 4 g ai/ha): 100
